Results taken from patent US20210162078A1, “METHOD FOR DIAGNOSIS OF DO[…] MOVEMENT DISORDERS” (LikeMinds, Inc., priority 2018, published 2021).
Like-named read-outs stand apart in the source and are kept apart here.

Tests used:
[1] = Clinical safety and radiation dose of radiolabeled DaT2020 bolus injection; format: in vivo, human
Protocol: Such buffers include, but are not limited to, ethanol (solvent), sodium hydroxide and acetic acid (pH adjustment), sodium chloride injection (isotonic vehicle). The formulation to be administered as a bolus injection has been shown in sponsored clinical trials to be safe containing a dose of up to about 8 mCi to 10 mCi of radiolabeled DaT2020 and delivered in a total volume of about 2.5 mL to about 5 mL.
The radioactivity of the dose of radiolabeled DaT2020 or of its radiolabeled derivatives, can be determined one with skill in the art, e.g. by a nuclear medicine imaging technician. In addition, the total radioactivity of the actual administered dose is of relevance and not the volume administered to achieve this dose. The exact radioactive dose of the tracer administered is determined by calculating the difference between the radioactivity in the syringe and delivery system before and after injection. After the dose is delivered, the syringe is filled with a volume of saline equal to the administered dose volume. The syringe content is recounted under the same conditions as used to determine the dose; separately. […]

[2] = target: T1, DAT in the striatum (Homo sapiens, UniProt Q01959); details: imaging time 15 min to 45 min post-administration, cited from earlier work
T1 construct: from tissue; host or cells: striatum of living subjects (in vivo SPECT)
T1 sequence (Q01959 whole entry): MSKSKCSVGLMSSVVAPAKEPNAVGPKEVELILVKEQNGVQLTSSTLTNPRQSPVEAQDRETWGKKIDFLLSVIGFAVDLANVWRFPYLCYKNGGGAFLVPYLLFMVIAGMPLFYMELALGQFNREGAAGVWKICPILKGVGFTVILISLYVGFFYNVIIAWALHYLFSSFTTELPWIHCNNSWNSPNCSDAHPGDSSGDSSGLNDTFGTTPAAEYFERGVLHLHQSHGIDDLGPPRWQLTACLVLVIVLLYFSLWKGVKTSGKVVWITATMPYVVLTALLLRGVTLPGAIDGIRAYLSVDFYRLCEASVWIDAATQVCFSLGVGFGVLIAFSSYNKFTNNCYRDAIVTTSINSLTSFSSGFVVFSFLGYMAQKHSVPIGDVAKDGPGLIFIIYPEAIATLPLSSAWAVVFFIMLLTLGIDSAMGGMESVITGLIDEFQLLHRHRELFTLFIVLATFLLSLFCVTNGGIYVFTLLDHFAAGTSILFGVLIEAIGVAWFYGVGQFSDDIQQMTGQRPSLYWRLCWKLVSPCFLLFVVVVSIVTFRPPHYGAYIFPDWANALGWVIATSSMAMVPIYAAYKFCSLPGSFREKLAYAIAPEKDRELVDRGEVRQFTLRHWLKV

[3] = target: T2, DAT (Homo sapiens, UniProt Q01959); assay: Binding selectivity of DaT2020 for DAT over SERT
Target sequence in this assay (Q01959 whole entry, species assumed): as the sequence (Q01959 whole entry) above

[4] = target: T1, DAT in the striatum; assay: DaT2020 SPECT study: striatal binding ratio over time after IV injection; format: in vivo; details: for specific binding ratio reached, as % of average stable binding ratio: within six min after injection
Protocol: The results obtained from administering lower doses of radiolabeled_DaT2020 (5.3 mCi) were modeled from the data obtained using the 8 mCi dose and a 3-headed camera. Within six min after injection of radiolabeled DaT2020, the specific binding ratios of Parkinson's patients and the healthy volunteer group had reached 90% and 74% of the average stable binding ratio of 1.32 and 1.64, respectively, during the previously determined imaging time of 15 min to 45 min post-administration. In contrast, DaTscan takes least 180 min to reach a stable binding ratio.
The subjects used in the study were healthy volunteers (HV) and those with at least mild Parkinson's disease (PD) (Seibyl at al. (2008) “ALTROPANE SPECT in Parkinson's disease patients and healthy controls” (poster). Abs. Movement Dis. Soc. 12th Internat. Con. Parkinson's Disease and Movement Disorders). All subjects were evaluated by a clinician using validated measures to determine if there is evidence of a movement disorder. Any subject using an anti-parkinsonian medication abstained from its use for at least 12 hr prior to the movement disorder evaluation. […]
ROIs were determined using data obtained from about 24 min to 30 min after dose administration, with individual subject ROI sampling of the left and right caudate and putamen and an occipital background region. […]
To determine the striatal binding ratios (SBR) extract total counts within the ROI, total volume, and count density (counts/voxel) from each scan. SBR is calculated as the density of counts (counts per voxel per min) in the striatal region minus the counts in the occipital cortex (background) divided by the density of counts in the occipital background region. The mean striatal SBR scores are calculated as the mean of the left and right caudate and putamen SBR scores.
DaT2020 SBR data over time were abstracted by reading the graphics showing SBR over time for PD patients (Seibyl and Merck, ibid., Appendix 1) (the first scan of two was read), and in Appendix 2 for healthy volunteers (Seibyl and Merck, ibid., Appendix 2).

[5] = target: T1, DAT in the striatum; details: cited from earlier work; for time after injection to stable binding to striatal DAT: DaTscan, IV injection, SPECT
[6] = target: T2, DAT; design: host or cells: brain tissue in vivo; details: after binding to transporters other than DAT; package insert; cited from earlier work
Target sequence in this assay (Q01959 whole entry): as above

[7] = target: T2, DAT; details: DAT sites per one SERT site; package insert; cited from earlier work
Target sequence in this assay (Q01959 whole entry, species assumed): as the sequence (Q01959 whole entry) above

Structure (SMILES) | safety of bolus injection in sponsored clinical trials ([1]; dose of up to about 8 mCi to 10 mCi, total volume about 2.5 mL to about 5 mL) | effective dose ([1]; for 5 mCi of radiolabeled DaT2020) | average stable binding ratio (SBR) ([2]; Parkinson's patients) | average stable binding ratio (SBR) ([2]; healthy volunteer group) | binding selectivity for DAT over SERT [3] [fold] | specific binding ratio reached, as % of average stable binding ratio ([4]; Parkinson's patients) [%] | specific binding ratio reached, as % of average stable binding ratio ([4]; healthy volunteer group) [%] | time after administration at which stable binding to DAT occurs ([4]; radiolabeled DaT2020, IV injection, SPECT) [min] | time after injection to stable binding to striatal DAT [5] [h] | time after injection to stable binding to striatal DAT ([5]; listed as [^123I]-FP-CIT) [h] | time for which binding remains stable ([5]; after reaching stable binding 3 hr post-injection) [h] | DaTscan available for DAT transporter binding in the brain tissue [6] | DAT sites bound for every one SERT site [7]
COC(=O)[C@H]1[C@@H](c2ccc(F)cc2)C[C@@H]2CC[C@H]1N2C/C=C/I [DaT2020, E-2β-carbomethoxy-3β-(4-fluorophenyl)-N-(3-iodo-E-allyl) nortropane] | safe | approximately 4.3 mSv | 1.32 | 1.64 | 28 | 90 | 74 | 15 |  |  |  |  | 
COC(=O)[C@H]1[C@@H](c2ccc(I)cc2)C[C@@H]2CC[C@H]1N2CCCF [DaTscan, N-ω-fluoropropyl-2β-carbomethoxy-3β-(4-iodophenyl) nortropane] |  |  |  |  |  |  |  |  | 3 | 3 | 3 | about 7% | two to three
